Reference: patent US20250041302A1, “PROLYL HYDROXYLASE DOMAIN INHIBITOR FOR TREATING HEMORRHAGIC OR BURN SHOCK” (THE GOVERNMENT OF THE UNITED STATES, AS REPRESENTED BY THE …, priority 2022, published 2025)
Entries after “also recorded” stand apart in the source; their conditions may differ.

Tests used:
[1] = test system: polytrauma/hemorrhage rodent model; assay: Intravenous PHDi at 20 min after polytrauma/hemorrhage (FIG. 6); type: in vivo, rat
Method: FIG. 6. The effect of intravenous administration of PHDi after polytrauma/hemorrhage. PHDi (MK-8617, 1 mg/kg, n=8) or vehicle (n=7) was administered intravenously at 20 min after trauma. (FIG. 6A) Mean arterial pressure (MAP); (FIG. 6B) Lactate (hyperlactatemia); (FIG. 6C) Prothrombin time (PT, acute traumatic coagulopathy); and (FIG. 6D) Fibrinogen level.
PHDi (MK-8617, 1 mg/ml in 500 μL of 5% DMSO, 10% PEG 400, and 85% normal saline, average dose 1.26±0.05 mg/kg, n=8), or vehicle (n=7) was administered intravenously at 20 min after trauma. The surviving animals were euthanized 4 hours after trauma.

[2] = test system: swine model of 40% total burned surface area burn; assay: Porcine burn shock pilot study, 40% total burned surface area contact burn; type: in vivo, Juvenile female Yorkshire swine; settings: for BE / HCO3 / Lactate / TCO2 / arterial blood gas pH / pCO2 / pO2 / sO2: 4 Hours after Burn; for Alanine Aminotransferase / Albumin / Alkaline Phosphatase / Amylase / Aspartate Aminotransferase / BUN / Basophils / Bicarbonate / Calculated Osmolality / Cellular Hemoglobin (Optical) / Cellular Hemoglobin Concentration Mean (Optical) / Chloride / Eosinophils / Glucose / Hematocrit / Hemoglobin / Hemoglobin Distribution Width / Large Unstained Cells / Lipase / Lymphocytes / Mean Corpuscular Hemoglobin / Mean Corpuscular Hemoglobin Concentration / Mean Corpuscular Volume / Mean Platelet Volume / Monocytes / Myoglobin / Neutrophils / Platelets / Potassium / Red Blood Cells / Red Cell Distribution Width / Sodium / Total Protein / White Blood Cells / Creatinine: 24 Hours after Burn; for mortalities: n=4, over 48 hours
Method: Using n=12 animals, we performed a pilot study of the effects of HIF-1α pathway activation with MK-8617 on survival time and volume of resuscitation fluid required to maintain urine output over 48 hours in a swine model of 40% total burned surface area mixed deep and partial thickness contact burn. Animals were block randomized into three groups, including control (vehicle only; n=4), low-dose (15 mg; n=4) and high-dose (50 mg; n=4). MK-8617 for injection was dissolved in a 45:5:50 mixture of polyethylene glycol (molecular weight: 400 daltons): dimethylsulfoxide: saline with pH adjusted to 8.4. Juvenile female Yorkshire swine weighing between 35-50 kg underwent open surgical splenectomy, then were allowed to recover for a minimum of two weeks before instrumentation with central venous and arterial lines and experimental burn. Animals received an injection of MK-8617 or vehicle at 30 minutes after burn followed by a standard-of-care crystalloid resuscitation with lactated Ringer's solution starting at 60 minutes after burn-we used a custom-built, fully closed-loop, automated resuscitation system based on the Burn Navigator to deliver goal-directed resuscitation with a target urine output of 30-50 ml/hr. Time to mortality, total fluid volumes infused, urine output generated, and serological measures of organ function were measured. Investigators remained blinded to treatment allocations until after data analysis was complete. Survival was analyzed using a log-rank test followed by a Tukey's studentized range multiple comparisons adjustment. Serological measures were analyzed using a linear model with baseline correction followed by a Tukey-Kramer multiple comparisons adjustment.

[3] = low and high dose versus control

For `COc1ccc(C(NC(=O)c2cnc(-c3cccnn3)nc2O)c2ccc(OC)cc2)cc1` [MK-8617, N-[Bis(4-methoxyphenyl)methyl]-4-hydroxy-2-(pyridazin-3-yl)pyrimidine-5-carboxamide], the “mean arterial pressure (MAP) compared with vehicle” value ([1]; after treatment, MK-8617 i.v. 1.26±0.05 mg/kg at 20 min after trauma, n=8) was “significantly higher”, the “reduction in the elevation of lactate as compared with vehicle” value ([1]; at 60 min, i.v. at 20 min after trauma) was “about 30%” and the “prothrombin time (PT, acute traumatic coagulopathy)” value ([1]; i.v. at 20 min after trauma) was “reduced the prolongation of prothrombin time”. The BE ([2]; High Dose (50 mg)) was 3.75 ± 2.99 mmol/L, the HCO3 ([2]; High Dose (50 mg)) was 28.18 ± 2.44 mmol/L and the Lactate ([2]; High Dose (50 mg)) was 6.98 ± 3.09 mmol/L. The TCO2 ([2]; High Dose (50 mg)) was 29.50 ± 2.52 mmol/L, the “arterial blood gas pH” value ([2]; High Dose (50 mg)) was 7.43±0.05 and the pCO2 ([2]; High Dose (50 mg)) was 42.25 ± 4.07 mmHg. For the same compound, the pO2 ([2]; High Dose (50 mg)) was 209.00 ± 2.45 mmHg, the sO2 ([2]; High Dose (50 mg)) was 100 ± 0% and the “Alanine Aminotransferase” value ([2]; High Dose (50 mg)) was 50.00 ± 10.23 U/L. The Albumin ([2]; High Dose (50 mg)) was 0.55 ± 0.19 g/dL, the “Alkaline Phosphatase” value ([2]; High Dose (50 mg)) was 159.75 ± 39.11 U/L and the Amylase ([2]; High Dose (50 mg)) was 58577 ± 41616 U/L. The “Aspartate Aminotransferase” value ([2]; High Dose (50 mg)) was 98.75 ± 37.56 U/L, the BUN ([2]; High Dose (50 mg)) was 18.75 ± 1.65 mg/dL and the Basophils ([2]; High Dose (50 mg)) was 0.13 ± 0.05%. The Bicarbonate ([2]; High Dose (50 mg)) was 26.90 ± 1.65 mmol/L, the “Calculated Osmolality” value ([2]; High Dose (50 mg)) was 290.00 ± 9.49 and the Cellular Hemoglobin (Optical) ([2]; High Dose (50 mg)) was 16.3 ± 0.66 pg. The “Cellular Hemoglobin Concentration Mean (Optical)” value ([2]; High Dose (50 mg)) was 31.30 ± 0.86 g/dL, the Chloride ([2]; High Dose (50 mg)) was 108.25 ± 4.99 mmol/L and the Eosinophils ([2]; High Dose (50 mg)) was 0.18 ± 0.05%. The Glucose ([2]; High Dose (50 mg)) was 69.50 ± 3.70 mg/dL, the Hematocrit ([2]; High Dose (50 mg)) was 29.93 ± 2.01% and the Hemoglobin ([2]; High Dose (50 mg)) was 9.60 ± 0.51 g/dL. For the same compound, the “Hemoglobin Distribution Width” value ([2]; High Dose (50 mg)) was 1.78 ± 0.15 g/dL, the “Large Unstained Cells” value ([2]; High Dose (50 mg)) was 0.88 ± 0.17% and the Lipase ([2]; High Dose (50 mg)) was 155.67 ± 71.84 U/L. For the same compound, the Lymphocytes ([2]; High Dose (50 mg)) was 38.78 ± 9.52%, the “Mean Corpuscular Hemoglobin” value ([2]; High Dose (50 mg)) was 16.75 ± 0.60 pg and the “Mean Corpuscular Hemoglobin Concentration” value ([2]; High Dose (50 mg)) was 32.18 ± 0.59 g/dL. For the same compound, the “Mean Corpuscular Volume” value ([2]; High Dose (50 mg)) was 52.05 ± 0.97 fL, the “Mean Platelet Volume” value ([2]; High Dose (50 mg)) was 11.53 ± 1.06 fL and the Monocytes ([2]; High Dose (50 mg)) was 1.98 ± 0.71%. For the same compound, the Myoglobin ([2]; High Dose (50 mg)) was 502.50 ± 148.23 ng/mL, the Neutrophils ([2]; High Dose (50 mg)) was 58.05 ± 9.81% and the Platelets ([2]; High Dose (50 mg)) was 363 ± 32 10³ cells/µL. For the same compound, the Potassium ([2]; High Dose (50 mg)) was 4.58 ± 0.85 mmol/L, the “Red Blood Cells” value ([2]; High Dose (50 mg)) was 5.75 ± 0.47 10^6 cells/μL and the “Red Cell Distribution Width” value ([2]; High Dose (50 mg)) was 15.55 ± 0.61%. For the same compound, the Sodium ([2]; High Dose (50 mg)) was 145.50 ± 4.51 mmol/L, the “Total Protein” value ([2]; High Dose (50 mg)) was 4.38 ± 0.78 g/dL and the White Blood Cells ([2]; High Dose (50 mg)) was 17.5 ± 4.92 10³ cells/µL. For the same compound, the Creatinine ([2]; High Dose (50 mg), adjusted p=0.04 versus low dose) was 1.53 ± 0.28 mg/dL, the BE ([2]; Low Dose (15 mg)) was -3.00 ± 5.48 mmol/L and the HCO3 ([2]; Low Dose (15 mg)) was 22.30 ± 4.08 mmol/L. The Lactate ([2]; Low Dose (15 mg)) was 11.84 ± 4.55 mmol/L, the TCO2 ([2]; Low Dose (15 mg)) was 23.75 ± 4.11 mmol/L and the “arterial blood gas pH” value ([2]; Low Dose (15 mg)) was 7.35 ± 0.10. It also gave a pCO2 ([2]; Low Dose (15 mg)) of 38.40 ± 5.69 mmHg, a sO2 ([2]; Low Dose (15 mg)) of 100 ± 0% and a pO2 ([2]; Low Dose (15 mg), adjusted p=0.007 versus control) of 191.75 ± 14.73 mmHg. The “Alanine Aminotransferase” value ([2]; Low Dose (15 mg)) was 31.00 ± 36.77 U/L, the Albumin ([2]; Low Dose (15 mg)) was 0.50 ± 0.00 g/dL and the “Alkaline Phosphatase” value ([2]; Low Dose (15 mg)) was 201.50 ± 10.61 U/L. The Amylase ([2]; Low Dose (15 mg)) was 234170 ± 286731 U/L, the “Aspartate Aminotransferase” value ([2]; Low Dose (15 mg)) was 119.00 ± 80.61 U/L and the Basophils ([2]; Low Dose (15 mg)) was 0.20 ± 0.00%. For the same compound, the Bicarbonate ([2]; Low Dose (15 mg)) was 24.95 ± 2.62 mmol/L, the “Calculated Osmolality” value ([2]; Low Dose (15 mg)) was 291.50 ± 10.61 and the Cellular Hemoglobin (Optical) ([2]; Low Dose (15 mg)) was 15.8 ± 0.42 pg. For the same compound, the “Cellular Hemoglobin Concentration Mean (Optical)” value ([2]; Low Dose (15 mg)) was 30.45 ± 0.49 g/dL, the Chloride ([2]; Low Dose (15 mg)) was 108.50 ± 3.54 mmol/L and the Creatinine ([2]; Low Dose (15 mg)) was 2.01 ± 0.16 mg/dL. It also gave an Eosinophils ([2]; Low Dose (15 mg)) of 0.40 ± 0.00%, a Glucose ([2]; Low Dose (15 mg)) of 46.00 ± 26.87 mg/dL and a Hematocrit ([2]; Low Dose (15 mg)) of 29.35 ± 0.64%. For the same compound, the Hemoglobin ([2]; Low Dose (15 mg)) was 9.55 ± 0.35 g/dL, the “Hemoglobin Distribution Width” value ([2]; Low Dose (15 mg)) was 1.74 ± 0.17 g/dL and the “Large Unstained Cells” value ([2]; Low Dose (15 mg)) was 0.80 ± 0.00%. For the same compound, the Lipase ([2]; Low Dose (15 mg)) was 19059.00 ± 26899.76 U/L, the Lymphocytes ([2]; Low Dose (15 mg)) was 37.55 ± 18.46% and the “Mean Corpuscular Hemoglobin” value ([2]; Low Dose (15 mg)) was 16.85 ± 0.49 pg. The “Mean Corpuscular Hemoglobin Concentration” value ([2]; Low Dose (15 mg)) was 32.45 ± 0.49 g/dL, the “Mean Corpuscular Volume” value ([2]; Low Dose (15 mg)) was 52.05 ± 0.78 fL and the “Mean Platelet Volume” value ([2]; Low Dose (15 mg)) was 14.90 ± 2.69 fL. It also gave a Monocytes ([2]; Low Dose (15 mg)) of 1.05 ± 0.78%, a Myoglobin ([2]; Low Dose (15 mg)) of 425.50 ± 318.91 ng/mL and a Neutrophils ([2]; Low Dose (15 mg)) of 60.05 ± 17.61%. The Platelets ([2]; Low Dose (15 mg)) was 329 ± 228 10³ cells/µL, the Potassium ([2]; Low Dose (15 mg)) was 4.75 ± 0.78 mmol/L and the “Red Blood Cells” value ([2]; Low Dose (15 mg)) was 5.64 ± 0.05 10^6 cells/μL. The “Red Cell Distribution Width” value ([2]; Low Dose (15 mg)) was 15.25 ± 0.78%, the Sodium ([2]; Low Dose (15 mg)) was 145.00 ± 5.66 mmol/L and the “Total Protein” value ([2]; Low Dose (15 mg)) was 4.05 ± 0.07 g/dL. For the same compound, the White Blood Cells ([2]; Low Dose (15 mg)) was 24 ± 18.9 10³ cells/µL, the BUN ([2]; Low Dose (15 mg), adjusted p=0.03 versus control) was 29.00 ± 2.83 mg/dL and the mortalities ([2]; high dose 50 mg) was “no mortalities”. For the same compound, the “metabolic / lactic acidosis after burn” value ([2]; high dose 50 mg, not statistically significant) was “may ameliorate metabolic acidosis; also recorded: may improve lactic acidosis”, the “effect on mortality, high dose versus low dose” value ([2]; high dose 50 mg, not versus control) was “significantly out-performing the low dose group” and the resuscitation fluid required [2, 3] was “no statistically significant differences; also recorded: did not appear to reduce resuscitation volumes”. For the same compound, the urine output generated [2, 3] was “no statistically significant differences; also recorded: did not appear to reduce resuscitation volumes or improve urine output”, the mortalities ([2]; low dose 15 mg) was “three” and the “time to mortality, low dose versus high dose” value ([2]; low dose 15 mg, p=0.044) was “significantly worse time to mortality”.
